The target of assay [1] is SHP-2 enzyme (Met1-Leu525) (Homo sapiens (Human), UniProt Q06124). Briefly: SHP2 inhibition enzymatic assay. In kind it is biochemical. To be noted: 0.5 nM SHP-2 activated by 500 nM IRS1 peptide, 75 μM DiFMUP substrate; read-out: SHP2wt-IC50. A digest of the protocol:
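SHP-2 (Met1-Leu525), 0.5 nM, activated with 500 nM IRS1 bis-phosphopeptide, preincubated 30 min with compounds in HEPES pH 7.2 buffer with 5 mM DTT. 75 μM DiFMUP added for 30 min at room temperature, stopped with bpV; fluorescence read. IC50 from four-parameter logistic fit of % inhibition.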

Assay [2] has as its system ERK phosphorylation in KYSE-520 cells. Briefly: Phospho-ERK cellular assay. It is filed as cell-based. To be noted: Homo sapiens, read-out: PERK IC50. The procedure, abridged:
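TR-FRET read-out of ERK1/2 Thr202/Tyr204 phosphorylation was taken after overnight antibody incubation at room temperature. Before that, KYSE-520 cells were treated 2 h at 37 °C with compound dilutions and lysed 30 min. Percent inhibition relative to vehicle and cell-free wells was fitted four-parametrically to give IC50.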

Setting [3] is: KYSE-520, 2 h, KYSE-520 cells, 2 h at 37° C., phospho-ERK1/2 (Thr202/Tyr204) TR-FRET.

Like-named read-outs stand apart in the source and are kept apart here. Some results are limits rather than exact numbers.

This is an account of results in US20240109900A1, “AZABICYCLIC SHP2 INHIBITORS” (IRBM S.P.A., priority 2021, published 2024).

Sequence of SHP-2 enzyme (Met1-Leu525) (Q06124 1-525): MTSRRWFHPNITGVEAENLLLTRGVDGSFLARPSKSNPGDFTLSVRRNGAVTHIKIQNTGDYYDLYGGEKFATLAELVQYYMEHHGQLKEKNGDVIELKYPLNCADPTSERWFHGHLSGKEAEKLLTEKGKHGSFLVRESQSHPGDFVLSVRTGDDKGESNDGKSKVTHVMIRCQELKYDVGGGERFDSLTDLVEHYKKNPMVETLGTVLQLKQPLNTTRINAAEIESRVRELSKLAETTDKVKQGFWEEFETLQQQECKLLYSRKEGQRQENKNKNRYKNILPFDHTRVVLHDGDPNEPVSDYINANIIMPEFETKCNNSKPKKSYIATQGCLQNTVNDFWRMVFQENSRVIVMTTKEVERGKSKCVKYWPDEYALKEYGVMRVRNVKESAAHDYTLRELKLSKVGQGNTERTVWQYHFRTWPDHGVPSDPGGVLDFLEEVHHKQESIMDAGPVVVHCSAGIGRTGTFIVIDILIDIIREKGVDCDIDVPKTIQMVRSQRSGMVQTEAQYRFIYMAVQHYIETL

As to `Cc1csc(C2(CN)C3CCN(c4cnc5c(-c6ccc(OS(=O)(=O)F)c7ccccc67)n[nH]c5n4)CC32)n1` (centres unmarked) [Example 103, 4-(6-(7-(aminomethyl)-7-(4-methylthiazol-2-yl)-3-azabicyclo[4.1.0]heptan-3-yl)-1H-pyrazolo[3,4-b]pyrazin-3-yl)naphthalen-1-yl sulfurofluoridate], the IC50 in assay [1] was under 500 nM; in assay [2] (KYSE-520, 2 h), under 1000 nM.
As for `Cc1nnc([C@@]2(CN)[C@@H]3CN(c4cnc5c(-c6ccc7nn(C)cc7c6Cl)n[nH]c5n4)C[C@@H]32)s1` [Example 501, ((1R,5S,6r)-3-(3-(4-chloro-2-methyl-2H-indazol-5-yl)-1H-pyrazolo[3,4-b]pyrazin-6-yl)-6-(5-methyl-1,3,4-thiadiazol-2-yl)-3-azabicyclo[3.1.0]hexan-6-yl)methanamine], the IC50 in assay [1] is under 500 nM; in assay [2] (setting [3]), under 1000 nM.
For `Cc1csc([C@@]2(CN)[C@@H]3CN(c4cnc5c(-c6ccc(F)c7ncccc67)n[nH]c5n4)C[C@@H]32)n1` [Example 213, ((1R,5S,6r)-3-(3-(8-fluoroquinolin-5-yl)-1H-pyrazolo[3,4-b]pyrazin-6-yl)-6-(4-methylthiazol-2-yl)-3-azabicyclo[3.1.0]hexan-6-yl)methanamine], the figures for the IC50 in assay [1] and in assay [2] (setting [3]) were under 500 nM and under 1000 nM, respectively.
As to `NC[C@]1(c2ccccc2F)[C@@H]2CCN(c3cnc4c(-c5ccc(O)c(F)c5)n[nH]c4n3)C[C@@H]21` [Example 331, 4-(6-((1S,6R,7R)-7-(aminomethyl)-7-(2-fluorophenyl)-3-azabicyclo[4.1.0]heptan-3-yl)-1H-pyrazolo[3,4-b]pyrazin-3-yl)-2-fluorophenol], the half-inhibitory concentration (IC50) in assay [1] was under 500 nM; in assay [2] (setting [3]) it was under 1000 nM.
For the compound `NCC1(c2ccsc2)C2CCN(c3nc4nc(Sc5cccnc5C(F)(F)F)cnc4[nH]3)CC21` (centres unmarked) [Example 64, (7-(thiophen-3-yl)-3-(5-((2-(trifluoromethyl)pyridin-3-yl)thio)-1H-imidazo[4,5-b]pyrazin-2-yl)-3-azabicyclo[4.1.0]heptan-7-yl)methanamine], the values for the IC50 in assay [1] and in assay [2] (setting [3]) were under 500 nM and 1000 to 5000 nM, respectively.
On to `NC[C@]1(c2ccccc2F)[C@@H]2CCN(c3cnc4c(-c5ccc6[nH]ccc6c5Cl)n[nH]c4n3)C[C@@H]21` [Example 405, ((1S,6R,7R)-3-(3-(4-chloro-1H-indol-5-yl)-1H-pyrazolo[3,4-b]pyrazin-6-yl)-7-(2-fluorophenyl)-3-azabicyclo[4.1.0]heptan-7-yl)methanamine], for which the IC50 in assay [1] was under 500 nM; in assay [2] (setting [3]), under 1000 nM.
Taken in the same sequence, the figures for `NCC1(c2ccccc2F)[C@@H]2CCN(c3cnc(Sc4ccnc(-n5cccn5)c4Cl)cn3)CC[C@@H]21` (stereo partly drawn) [Example 403, ((1R,7S)-4-(5-((3-chloro-2-(1H-pyrazol-1-yl)pyridin-4-yl)thio)pyrazin-2-yl)-8-(2-fluorophenyl)-4-azabicyclo[5.1.0]octan-8-yl)methanamine] were under 500 nM and over 5000 nM.
For `NC[C@]1(c2ccccc2F)[C@@H]2CCN(c3cnc4c(-c5cccc6nccn56)n[nH]c4n3)C[C@@H]21` [Example 143, ((1S,6R,7R)-7-(2-fluorophenyl)-3-(3-(imidazo[1,2-a]pyridin-5-yl)-1H-pyrazolo[3,4-b]pyrazin-6-yl)-3-azabicyclo[4.1.0]heptan-7-yl)methanamine], the figures for the IC50 in assay [1] and in assay [2] (setting [3]) were under 500 nM and under 1000 nM, respectively.
Regarding `CNc1nccc(-c2n[nH]c3nc(N4CCC5C(C4)C5(CN)c4ccccc4F)cnc23)c1Cl` (centres unmarked) [Example 16, 4-(6-(7-(aminomethyl)-7-(2-fluorophenyl)-3-azabicyclo[4.1.0]heptan-3-yl)-1H-pyrazolo[3,4-b]pyrazin-3-yl)-3-chloro-N-methylpyridin-2-amine], the IC50 is under 500 nM in assay [1] and under 1000 nM in assay [2] (setting [3]).
As to `NC[C@@]1(c2ccccc2F)C2CCN(c3ccc4nc(Sc5ccnc(N)c5Cl)ccc4n3)CC21` (stereo in doubt) [Example 387, 4-((6-((1R,6S,7S)-7-(aminomethyl)-7-(2-fluorophenyl)-3-azabicyclo[4.1.0]heptan-3-yl)-1,5-naphthyridin-2-yl)thio)-3-chloropyridin-2-amine], the values for the IC50 in assay [1] and in assay [2] (setting [3]) were under 500 nM and under 1000 nM, respectively.
For the compound `COc1ccc2c(-c3n[nH]c4nc(N5CC[C@@H]6[C@H](C5)[C@@]6(CN)c5ccccc5F)cnc34)ccnc2c1` [Example 191, ((1S,6R,7R)-7-(2-fluorophenyl)-3-(3-(7-methoxyquinolin-4-yl)-1H-pyrazolo[3,4-b]pyrazin-6-yl)-3-azabicyclo[4.1.0]heptan-7-yl)methanamine], the IC50 in assay [1] was under 500 nM; in assay [2] (setting [3]), under 1000 nM.
As for `Cc1cc(C2(CN)C3CCN(c4cnc5c(-c6ccc(F)c7ncccc67)n[nH]c5n4)CC32)no1` (centres unmarked) [Example 30, (3-(3-(8-fluoroquinolin-5-yl)-1H-pyrazolo[3,4-b]pyrazin-6-yl)-7-(5-methylisoxazol-3-yl)-3-azabicyclo[4.1.0]heptan-7-yl)methanamine], the IC50 in assay [1] was under 500 nM; in assay [2] (setting [3]), under 1000 nM.
Turning to `Cc1cc(C2(CN)C3CCN(c4cnc5c(-c6cccc(Cl)c6Cl)n[nH]c5n4)CC32)on1` (centres unmarked) [Example 6, (3-(3-(2,3-dichlorophenyl)-1H-pyrazolo[3,4-b]pyrazin-6-yl)-7-(3-methylisoxazol-5-yl)-3-azabicyclo[4.1.0]heptan-7-yl)methanamine], the IC50 in assay [1] was under 500 nM; in assay [2] (setting [3]) it was under 1000 nM.
Taken in the same sequence, the figures for `Cn1c(=O)oc2cc(-c3n[nH]c4nc(N5CC[C@@H]6[C@H](C5)[C@@]6(CN)c5ccccc5F)cnc34)ccc21` [Example 353, 6-(6-((1S,6R,7R)-7-(aminomethyl)-7-(2-fluorophenyl)-3-azabicyclo[4.1.0]heptan-3-yl)-1H-pyrazolo[3,4-b]pyrazin-3-yl)-3-methylbenzo[d]oxazol-2(3H)-one] were under 500 nM and under 1000 nM.
Regarding `Cc1cc([C@@]2(CN)[C@@H]3CCN(c4cnc5c(-c6ccnc7ccc(F)cc67)n[nH]c5n4)C[C@@H]32)no1` [Example 39, ((1S,6R,7S)-3-(3-(6-fluoroquinolin-4-yl)-1H-pyrazolo[3,4-b]pyrazin-6-yl)-7-(5-methylisoxazol-3-yl)-3-azabicyclo[4.1.0]heptan-7-yl)methanamine], the IC50 is under 500 nM in assay [1] and under 1000 nM in assay [2] (setting [3]).
Turning to `NC[C@]1(c2ccccc2F)[C@@H]2CCN(c3cnc4c(-c5ccnc6occc56)n[nH]c4n3)C[C@@H]21` [Example 186, ((1S,6R,7R)-7-(2-fluorophenyl)-3-(3-(furo[2,3-b]pyridin-4-yl)-1H-pyrazolo[3,4-b]pyrazin-6-yl)-3-azabicyclo[4.1.0]heptan-7-yl)methanamine], the results for the IC50 in assay [1] and in assay [2] (setting [3]) were under 500 nM and under 1000 nM, respectively.
As for `Cc1cc(C2(CN)C3CCN(c4cnc5c(-c6cccc7c6CNC7=O)n[nH]c5n4)CC32)no1` (centres unmarked) [Example 19, 4-(6-(7-(aminomethyl)-7-(5-methylisoxazol-3-yl)-3-azabicyclo[4.1.0]heptan-3-yl)-1H-pyrazolo[3,4-b]pyrazin-3-yl)isoindolin-1-one], the IC50 in assay [1] was under 500 nM; in assay [2] (setting [3]), under 1000 nM.
`NC[C@]1(c2cccc(F)c2F)[C@@H]2CCN(c3cnc(Sc4ccnc(N)c4Cl)c(N)n3)C[C@@H]21` [Example 429, 3-((2-amino-3-chloropyridin-4-yl)thio)-6-((1S,6R,7R)-7-(aminomethyl)-7-(2,3-difluorophenyl)-3-azabicyclo[4.1.0]heptan-3-yl)pyrazin-2-amine]: the IC50 in assay [1] is under 500 nM; in assay [2] (setting [3]), under 1000 nM.
`Cn1c(-c2n[nH]c3nc(N4CC[C@@H]5[C@H](C4)[C@@]5(CN)c4ccccc4F)cnc23)ccc(Cl)c1=O` [Example 278, 6-(6-((1S,6R,7R)-7-(aminomethyl)-7-(2-fluorophenyl)-3-azabicyclo[4.1.0]heptan-3-yl)-1H-pyrazolo[3,4-b]pyrazin-3-yl)-3-chloro-1-methylpyridin-2(1H)-one]: the IC50 is under 500 nM in assay [1] and under 1000 nM in assay [2] (setting [3]).
In the case of `NC[C@]1(c2ccccc2F)[C@@H]2CCN(c3ccc4nc(Sc5ccnc(N)c5Cl)cnc4n3)C[C@@H]21` [Example 385, 4-((6-((1S,6R,7R)-7-(aminomethyl)-7-(2-fluorophenyl)-3-azabicyclo[4.1.0]heptan-3-yl)pyrido[2,3-b]pyrazin-2-yl)thio)-3-chloropyridin-2-amine], the IC50 is under 500 nM in assay [1] and under 1000 nM in assay [2] (KYSE-520 cells, 2 h at 37° C., phospho-ERK1/2 (Thr202/Tyr204) TR-FRET).
For `NC[C@]1(c2ccccc2F)[C@@H]2CCN(c3cnc4c(-c5ccc(N6CCCC6=O)cc5Cl)n[nH]c4n3)C[C@@H]21` [Example 326, 1-(4-(6-((1S,6R,7R)-7-(aminomethyl)-7-(2-fluorophenyl)-3-azabicyclo[4.1.0]heptan-3-yl)-1H-pyrazolo[3,4-b]pyrazin-3-yl)-3-chlorophenyl)pyrrolidin-2-one], the figures for the half-maximal inhibitory concentration (IC50) in assay [1] and in assay [2] (setting [3]) were under 500 nM and under 1000 nM, respectively.
As to `Cn1ccc2c(F)c(-c3n[nH]c4nc(N5CC[C@@H]6[C@H](C5)[C@@]6(CN)c5ccccc5F)cnc34)ccc2c1=O` [Example 316, 6-(6-((1S,6R,7R)-7-(aminomethyl)-7-(2-fluorophenyl)-3-azabicyclo[4.1.0]heptan-3-yl)-1H-pyrazolo[3,4-b]pyrazin-3-yl)-5-fluoro-2-methylisoquinolin-1(2H)-one], the values for the IC50 in assay [1] and in assay [2] (setting [3]) were under 500 nM and under 1000 nM, respectively.
